# Assay results taken from patent US20230405081A1, “PHARMACEUTICAL COMPOSITION COMPRISING A PEPTIDE AS ACTIVE INGREDIENT” (INTRACT PHARMA LIMITED, priority 2020, published 2023).
# Test: in vitro
# Details: human, real gastrointestinal fluid or homogenate; for remaining at 1 h, 1 mg/ml: pH 7, % Peptide remaining at 1 hours (T = 1 h)
# Protocol: A human colonic model based on a mixed faecal inoculum was used to mimic the luminal environment of the human large intestine. An anaerobic workstation (Electrotek 500TG™ workstation, Electrotek, West Yorkshire, UK) maintained at 37° C. and 70% relative air humidity was used to set up the model. The fecal material was transferred in the anaerobic workstation and diluted with freshly prepared basal medium to obtain 20% w/w slurry by homogenization. The basal media provides nutrients and growth factors to the microbiota allowing viability for up to 24 hours. The homogenized bacterial media was sieved through an open mesh fabric (SefarNitex™, pore size 350 μm) to remove any nonhomogeneous fibrous material. The pH was maintained at approximately 7 to mimic the colonic luminal pH of the human.
# Desmopressin stock solution was prepared in HPLC water at 2 mg/ml without or with single L-amino acids, combinations of L-amino acids or di-peptides at 10 and/or 20 and/or 40 mM concentrations and added to […] human faecal slurry; […] Samples were withdrawn at appropriate time points and added to HPLC grade methanol in a ratio of 1:1. The samples were centrifuged at […] for 10 minutes at 4° C. and the supernatant was analysed by Reversed Phase-HPLC (RP-HPLC).
# Sample analysis was performed using a high performance liquid chromatography (HPLC) system (Agilent Technologies, 1260 Infinity II Series™) equipped with a pump (model G7111A), autosampler (model G7129A) and a diode-array UV detector (model G7114A). A 150×4.6-mm, 5 μm, 100 Å (Phenomenex, UK) reversed phase chromatography column was used for sample separation using 0.1% TFA in water (A) and acetonitrile (B) as the mobile phase for elution, at a flow rate of 1 ml/min. The gradient was set up with 17% of B at 0-4 minutes, 30% of B at 20 minutes and 17% of B at 20.01-23 minutes. The analysis was operated at room temperature and UV detection wavelength was set at 220 nm. Each sample was run for 23 minutes to allow complete elution of the sample without overlapping matrix interferences.
# Colon stability was assessed using the Human Colon model with the amount of intact desmopressin remaining at each time point assessed by RP-HPLC as described in the Methods section.
# Colon stability was assessed using the Human Colon model with the amount of intact oxytocin, oxytocin with 1 D-amino acid and linear oxytocin remaining at each time point assessed by RP-HPLC as described in the Methods section.
"% Desmopressin remaining after 1 hours (T = 1 h) (1 h, 0.1 mg/ml, pH 7)","remaining at 1 h, 0.1 mg/ml (pH 7, % Desmopressin remaining after 1 hours (T = 1 h))","remaining at 1 h, 1 mg/ml","remaining at 0.5 h, 1 mg/ml (pH 7, % Peptide remaining at 0.5 hours (T = 0.5 h))",SMILES
22.6 ± 2.7%,28.8 ± 1.2%,,,NC(=O)CC[C@@H]1NC(=O)[C@H](Cc2ccccc2)NC(=O)[C@H](Cc2ccc(O)cc2)NC(=O)CCSSC[C@@H](C(=O)N2CCC[C@H]2C(=O)N[C@H](CCCN=C(N)N)C(=O)NCC(N)=O)NC(=O)[C@H](CC(N)=O)NC1=O [Desmopressin]
,,6.6 ± 0.25%,,CC[C@H](C)[C@@H]1NC(=O)[C@H](Cc2ccc(O)cc2)NC(=O)[C@@H](N)CSSC[C@@H](C(=O)N2CCC[C@H]2C(=O)N[C@@H](CC(C)C)C(=O)NCC(N)=O)NC(=O)[C@H](CC(N)=O)NC(=O)[C@H](CCC(N)=O)NC1=O [Oxytocin]
,,0%,0%,CC[C@H](C)[C@H](NC(=O)[C@H](Cc1ccc(O)cc1)NC(=O)[C@@H](N)CS)C(=O)N[C@@H](CCC(N)=O)C(=O)N[C@@H](CC(N)=O)C(=O)N[C@@H](CS)C(=O)N1CCC[C@H]1C(=O)N[C@H](CC(C)C)C(=O)NCC(N)=O [Linear Oxytocin with 1 D-amino acid]
